# Data published in patent US8518889B2, “Method of treating cancer with antibodies against long-form leukotriene B4 receptor BLT2” (Korea University Research & Business Foundation, priority 2007, dated 2013).
# How the values were obtained:
# Panc-1 cells = experiment: MTT assay, cell viability; type: cell-based, human; conditions: 2.5, 5 and 10 μM, 48 h
# Procedure: (§1) To investigate the effect of the selective BLT2 antagonist LY255283 on pancreatic cancer cell proliferation and survival, cell viability was determined by MTT assay after Panc-1 and AsPC-1 cells were exposed to LY255283 for 48 hr.
# (§2) Two human pancreatic cancer cell lines were used: Panc-1 and AsPC-1. Panc-1 cells were grown in DMEM, and AsPC-1 cells were grown in RPMl 1640.
# (§3) Cells were plated in 96-well plates at a concentration of 10,000 cells/well. After incubation for 24 h, cells were serum-starved for 3 h, and then various concentrations (2.5 μM, 5 μM and 10 μM) of LY255283 were added. At the end of experiments, 25μ! of a 5 mg/ml MTT solution, diluted in PBS, was added into the 96-well plates. The plates were incubated at 37° C. in 5% CO2 atmosphere for 3 hr, allowing viable cells to reduce the yellow tetrazolium salt (MTT) into dark blue formazan crystals. At the end of the 3 h incubation, the MTT solution was removed and 100 μl of dimethyl sulfoxide was added to dissolve the formazan crystals. To ensure complete dissolution of the formazan crystals, the plates were vortexed gently at low speed for 10 min. The absorbance in individual wells was determined at 540 nm by a microplate reader.
# AsPC-1 cells = experiment: MTT assay, cell viability; type: cell-based, human; conditions: 2.5, 5 and 10 μM, 48 h
# Procedure: as §1, §2, §3
# [1] = system: acute lung injury induced by endotoxin; conditions: pigs; cited from earlier work
# [2] = system: VEGF-induced angiogenesis; experiment: VEGF-induced angiogenesis (Matrigel plug, HUVEC tube formation and transmigration); set-up: species or system FVB mice; conditions: mouse, in vivo
# Procedure: FVB wild-type mice or BLT2 TG mice (female, 8-10 wk old) were subcutaneously injected with 400 μl of growth factor-reduced Matrigel from BD Biosciences containing heparin (20 units) and the agents to be tested. After 7 days, the mice were killed, and the solidified Matrigel was excised, fixed in 10% formalin, embedded in paraffin, cut into 5-μm sections and stained with anti-vWF antibody according to the manufacturer's instructions in the Blood Vessel Staining Kit (Chemicon). Each stained Matrigel section was photographed using a BX51 microscope equipped with a DP71 digital camera (Olympus), and the area of vWF-positive blood vessels was calculated using Image J software.
# Growth factor-reduced Matrigel (300 μl; BD Biosciences, San Diego, Calif.) was added to each 24-well plate and polymerized for 12 h at 37° C. […] After 12 hr, five randomly selected areas were photographed using a CKX41 microscope equipped with a DP71 digital camera, and tube lengths were measured and quantified using Image J software, the image processing program developed at the U.S. National Institutes of Health (NIH). […]
# The cells were then allowed to migrate to the lower side of the chambers, which contained LTB4, 12(S)-HETE or VEGF. […] Cell migration was quantified by counting the cells on the lower side of the filter after they were photographed using a CKX41 microscope equipped with a DP71 digital camera. […]
# Rat2-HO6 cells = experiment: metastasis survival analysis (Kaplan-Meier); type: in vivo, nude mice; conditions: 2.5 mg/kg intraperitoneal, 7 weeks
# Procedure: All experimental animals used in this study were treated according to guidelines approved by the Institutional Animal Care and Use Committee of Korea University. Female nude mice (Charles River, Wilmington, Mass.), four-weeks-old at the time of injection, were used in the experimental metastasis assay. Rat-2, Rat2-HO6, and Rat2-BLT2 cells (5×10^5 cells) were prepared for injection from cultures in logarithmic growth at the time of harvest. The cells were briefly treated with 0.025% trypsin and 0.1% EDTA in Hanks' balanced salt solution and quickly removed from trypsin by centrifugation, resuspended in saline containing LTB4, and injected within 1 hr in 0.1 ml into the lateral tail vein with a 26-gauge needle. For inhibitor experiments, U75302 and LY255283 (0.25 mg/kg for BLT1 antagonist and 2.5 mg/kg for BLT2 antagonist) was injected intraperitoneally 3 and 5 days after injection of cells that were pretreated with inhibitors. The mice were maintained under aseptic barrier conditions until they were sacrificed at 21 days after cell injection (n=8, each group) to identify pulmonary metastasis or to investigate the mortality of mice at the end of the experiment (7 weeks) (n=8, each group). Metastasis survival was analyzed in Kaplan-Meyer plots.
structure (smiles),measurement,setting,value
"CCc1cc(C(C)=O)c(O)cc1OCCCCCC(C)(C)c1nnn[nH]1 [LY255283, 1-[5-ethyl-2-hydroxy-4-[[6-methyl-6-(1H-tetrazol-5-yl)heptyl]oxy]phenyl]-ethanone]","cell viability (MTT), Panc-1",Panc-1 cells,diminished cell viability in dose-dependent manner
same,"cell viability (MTT), AsPC-3 as printed",AsPC-1 cells,diminished cell viability in dose-dependent manner
same,activation of neutrophils and acute lung injury induced by endotoxin,[1],limits activation of neutrophils and prevents acute lung injury
same,VEGF-induced angiogenesis,[2],suppressed VEGF-induced angiogenesis
same,survival of mouse injected with Ras-oncogene expressing transformed cells,Rat2-HO6 cells,extended the survival
